Assay results: PubChem BioAssay (NCI)
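Step 1: Grow cells in 96-well plates. Step 2: Expose to compound for 48 hours at 5 concentrations. Step 3: Interpolate endpoints linearly; if unreached, use highest concentration. Here, GI50 denotes the concentration required for 50% inhibition of growth. TGI: total growth inhibition.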

Key:
Test in all cases: NCI anticancer screen, dose series, 48 h
SK-MEL-28 melanoma = tested on: SK-MEL-28 melanoma
KM12 colon = tested on: KM12 colon
NCI-H460 lung = tested on: NCI-H460 lung
NCI/ADR-RES ovarian = tested on: NCI/ADR-RES ovarian
HS 578T breast = tested on: HS 578T breast
LOX IMVI melanoma = tested on: LOX IMVI melanoma
K-562 leukemia = tested on: K-562 leukemia
SW-620 colon = tested on: SW-620 colon
OVCAR-8 ovarian = tested on: OVCAR-8 ovarian
TK-10 renal = tested on: TK-10 renal
NCI-H23 lung = tested on: NCI-H23 lung
IGROV1 ovarian = tested on: IGROV1 ovarian
SR leukemia = tested on: SR leukemia
MDA-MB-231 breast = tested on: MDA-MB-231 breast
CCRF-CEM leukemia = tested on: CCRF-CEM leukemia
RXF 393 renal = tested on: RXF 393 renal
HCC-2998 colon = tested on: HCC-2998 colon
EKVX NSCLC = tested on: EKVX NSCLC
SN12C renal = tested on: SN12C renal
U251 CNS = tested on: U251 CNS
SF-295 CNS = tested on: SF-295 CNS
MCF7 breast = tested on: MCF7 breast
UACC-257 melanoma = tested on: UACC-257 melanoma
MDA-MB-435 = tested on: MDA-MB-435
OVCAR-5 ovarian = tested on: OVCAR-5 ovarian
HOP-62 NSCLC = tested on: HOP-62 NSCLC
T-47D breast = tested on: T-47D breast
ACHN renal = tested on: ACHN renal
SK-MEL-2 melanoma = tested on: SK-MEL-2 melanoma
NCI-H226 lung = tested on: NCI-H226 lung
SNB-19 CNS = tested on: SNB-19 CNS
MALME-3M melanoma = tested on: MALME-3M melanoma
HCT-116 colon = tested on: HCT-116 colon
A549 NSCLC = tested on: A549 NSCLC
UO-31 renal = tested on: UO-31 renal
RPMI-8226 leukemia = tested on: RPMI-8226 leukemia
SK-OV-3 ovarian = tested on: SK-OV-3 ovarian
HT29 colon = tested on: HT29 colon
DU-145 prostate = tested on: DU-145 prostate
PC-3 prostate = tested on: PC-3 prostate
MOLT-4 leukemia = tested on: MOLT-4 leukemia
SF-268 CNS = tested on: SF-268 CNS
CAKI-1 renal = tested on: CAKI-1 renal
SF-539 CNS = tested on: SF-539 CNS
786-0 renal = tested on: 786-0 renal
SNB-75 CNS = tested on: SNB-75 CNS
A498 renal = tested on: A498 renal
UACC-62 melanoma = tested on: UACC-62 melanoma
OVCAR-4 ovarian = tested on: OVCAR-4 ovarian
MDA-MB-468 breast = tested on: MDA-MB-468 breast
BT-549 breast = tested on: BT-549 breast
HCT-15 colon = tested on: HCT-15 colon
HL-60(TB) leukemia = tested on: HL-60(TB) leukemia
M14 melanoma = tested on: M14 melanoma
SK-MEL-5 melanoma = tested on: SK-MEL-5 melanoma
OVCAR-3 ovarian = tested on: OVCAR-3 ovarian
HOP-92 NSCLC = tested on: HOP-92 NSCLC
NCI-H522 lung = tested on: NCI-H522 lung
COLO 205 colon = tested on: COLO 205 colon

SMILES: CC(C)(C)c1cc(/C=C2\S/C(=N/c3ncn[nH]3)NC2=O)cc(C(C)(C)C)c1O
- GI50 (SK-MEL-28 melanoma): 2.93 µM
- TGI (SK-MEL-28 melanoma): 14.4 µM
- GI50 (KM12 colon): 3.79 µM
- TGI (KM12 colon): 17 µM
- GI50 (NCI-H460 lung): 0.402 µM
- TGI (NCI-H460 lung): 10.1 µM
- GI50 (NCI/ADR-RES ovarian): 0.472 µM
- TGI (NCI/ADR-RES ovarian): 14.4 µM
- GI50 (HS 578T breast): 2.37 µM
- TGI (HS 578T breast): 8.47 µM
- GI50 (LOX IMVI melanoma): 0.71 µM
- TGI (LOX IMVI melanoma): 12.7 µM
- GI50 (K-562 leukemia): 1.44 µM
- TGI (K-562 leukemia): 54.3 µM
- GI50 (SW-620 colon): 2.13 µM
- TGI (SW-620 colon): 13.7 µM
- GI50 (OVCAR-8 ovarian): 1.76 µM
- TGI (OVCAR-8 ovarian): 14.3 µM
- GI50 (TK-10 renal): 4.82 µM
- TGI (TK-10 renal): 20.2 µM
- GI50 (NCI-H23 lung): 2.45 µM
- TGI (NCI-H23 lung): 17.3 µM
- GI50 (IGROV1 ovarian): 2.04 µM
- TGI (IGROV1 ovarian): 14.7 µM
- GI50 (SR leukemia): 0.935 µM
- TGI (SR leukemia): 29.8 µM
- GI50 (MDA-MB-231 breast): 2.91 µM
- TGI (MDA-MB-231 breast): 14.8 µM
- GI50 (CCRF-CEM leukemia): 0.706 µM
- TGI (CCRF-CEM leukemia): 6.5 µM
- GI50 (RXF 393 renal): 2.03 µM
- TGI (RXF 393 renal): 8.35 µM
- GI50 (HCC-2998 colon): 3.23 µM
- TGI (HCC-2998 colon): 16.9 µM
- GI50 (EKVX NSCLC): 2.15 µM
- TGI (EKVX NSCLC): 12.1 µM
- GI50 (SN12C renal): 2.08 µM
- TGI (SN12C renal): 13.3 µM
- GI50 (U251 CNS): 0.801 µM
- TGI (U251 CNS): 7.9 µM
- GI50 (SF-295 CNS): 0.593 µM
- TGI (SF-295 CNS): 12.7 µM
- GI50 (MCF7 breast): 1.83 µM
- TGI (MCF7 breast): 13 µM
- GI50 (UACC-257 melanoma): 3.85 µM
- TGI (UACC-257 melanoma): 16.7 µM
- GI50 (MDA-MB-435): 2.77 µM
- TGI (MDA-MB-435): 14.9 µM
- GI50 (OVCAR-5 ovarian): 4.52 µM
- TGI (OVCAR-5 ovarian): 17.7 µM
- GI50 (HOP-62 NSCLC): 0.999 µM
- TGI (HOP-62 NSCLC): 18.7 µM
- GI50 (T-47D breast): 2.29 µM
- TGI (T-47D breast): 44.4 µM
- GI50 (ACHN renal): 0.691 µM
- TGI (ACHN renal): 12.6 µM
- GI50 (SK-MEL-2 melanoma): 2.63 µM
- TGI (SK-MEL-2 melanoma): 15.9 µM
- GI50 (NCI-H226 lung): 1.8 µM
- TGI (NCI-H226 lung): 14.3 µM
- GI50 (SNB-19 CNS): 1.5 µM
- TGI (SNB-19 CNS): 12.9 µM
- GI50 (MALME-3M melanoma): 3.74 µM
- TGI (MALME-3M melanoma): 18.9 µM
- GI50 (HCT-116 colon): 0.978 µM
- TGI (HCT-116 colon): 11.1 µM
- GI50 (A549 NSCLC): 1.12 µM
- TGI (A549 NSCLC): 13.8 µM
- GI50 (UO-31 renal): 0.882 µM
- TGI (UO-31 renal): 12.3 µM
- GI50 (RPMI-8226 leukemia): 2.6 µM
- TGI (RPMI-8226 leukemia): 33.8 µM
- GI50 (SK-OV-3 ovarian): 4.83 µM
- TGI (SK-OV-3 ovarian): 20.5 µM
- GI50 (HT29 colon): 3.03 µM
- TGI (HT29 colon): 19.4 µM
- GI50 (DU-145 prostate): 2.53 µM
- TGI (DU-145 prostate): 21.5 µM
- GI50 (PC-3 prostate): 0.762 µM
- TGI (PC-3 prostate): 22.1 µM
- GI50 (MOLT-4 leukemia): 1.16 µM
- TGI (MOLT-4 leukemia): 13.7 µM
- GI50 (SF-268 CNS): 2.61 µM
- TGI (SF-268 CNS): 16.6 µM
- GI50 (CAKI-1 renal): 1.37 µM
- TGI (CAKI-1 renal): 16.7 µM
- GI50 (SF-539 CNS): 2.89 µM
- TGI (SF-539 CNS): 12.6 µM
- GI50 (786-0 renal): 2.95 µM
- TGI (786-0 renal): 13.3 µM
- GI50 (SNB-75 CNS): 2.34 µM
- TGI (SNB-75 CNS): 13.6 µM
- GI50 (A498 renal): 1.77 µM
- TGI (A498 renal): 10.5 µM
- GI50 (UACC-62 melanoma): 2.28 µM
- TGI (UACC-62 melanoma): 11.8 µM
- GI50 (OVCAR-4 ovarian): 2.31 µM
- TGI (OVCAR-4 ovarian): 16.3 µM
- GI50 (MDA-MB-468 breast): 2.75 µM
- TGI (MDA-MB-468 breast): 15.5 µM
- GI50 (BT-549 breast): 2.31 µM
- TGI (BT-549 breast): 11.8 µM
- GI50 (HCT-15 colon): 0.455 µM
- TGI (HCT-15 colon): 12.8 µM
- GI50 (HL-60(TB) leukemia): 2.73 µM
- TGI (HL-60(TB) leukemia): 18 µM
- GI50 (M14 melanoma): 1.98 µM
- TGI (M14 melanoma): 16.3 µM
- GI50 (SK-MEL-5 melanoma): 1.36 µM
- TGI (SK-MEL-5 melanoma): 9.78 µM
- GI50 (OVCAR-3 ovarian): 2.4 µM
- TGI (OVCAR-3 ovarian): 15.2 µM
- GI50 (HOP-92 NSCLC): 1.72 µM
- TGI (HOP-92 NSCLC): 13.4 µM
- GI50 (NCI-H522 lung): 3.78 µM
- TGI (NCI-H522 lung): 17.9 µM
- GI50 (COLO 205 colon): 1.99 µM
- TGI (COLO 205 colon): 12.8 µM
